Experimental data taken from US20220024921A1, “1,3,4-OXADIAZOLONE COMPOUND AND PHARMACEUTICAL” (NIPPON SHINYAKU CO., LTD., priority 2018, published 2022).
Counter-ions that a name gives are not always drawn.

Key:
[1] = target: T1, PIM1 serine/threonine kinase (Homo sapiens, UniProt P11309); assay: PIM1 serine/threonine kinase inhibitory effect; assay type: biochemical; conditions: PIM1 serine/threonine kinase activity; ATP 40 μM; 30° C., 30 minutes
T1 construct: purchased Carna Bioscience, Inc
Method: Each test substance was prepared to 10 mM with dimethylsulfoxide (DMSO), and further diluted with DMSO so as to have concentrations of 1000, 300, 100, 30, 10, 3, 1, 0.3, 0.1, 0.03, 0.01, and 0.001 μM. Moreover, each dilution was further diluted 33.3-fold with an assay buffer to prepare a test substance solution. The composition of the assay buffer was 50 mM HEPES (pH 7.0), 0.02% NaN3, 0.01% Bovine Serum Albumin, 0.1 mM Orthovanadate, 1 mM Dithiothreitol, and 5 mM MgCl2.
5 μL of each test substance solution was added to 384-well plates (n=2), and then 2.5 μL of a substrate solution (substrate 3-biotin (Cisbio Bioassays SAS), final concentration in the reaction solution: 0.5 μM) and 2.5 μL of an ATP solution (in the cases of PIM1, 2, 3, the final concentrations in the reaction solutions were 40, 2, and 10 μM, respectively) were added, 5 μL of each of PIM1, 2, 3 serine/threonine kinase solutions (Carna Bioscience, Inc., the final concentrations in the reaction solutions were 0.15, 1.6, and 0.25 μg/ml, respectively) was finally added, and the mixture was reacted at 30° C. for 30 minutes. The test substance concentrations in the reaction solutions are 10000, 3000, 1000, 300, 100, 30, 10, 3, 1, 0.3, 0.1, and 0.01 nM.
Thereafter, 15 μL of each detection solution (62.5 nM Streptavidin-XL665 (Cisbio Bioassays SAS), […] STK antibody-Cryptate (Cisbio Bioassays SAS), 50 mM HEPES (pH 7.0), 0.8 M KF, 0.1% Bovine Serum Albumin, 20 mM ethylenediaminetetraacetic acid) was added to each well. After stirring, the mixture was reacted at 30° C. for 1 hour. Absorbance (OD620, OD665) at 620 and 665 nm was measured with a microplate reader (SpectraMax M5e, Molecular Devices, LLC).
Non-linear regression analysis was performed by an SAS system (SAS Institute Inc.) using the ratio (OD665/OD620) of the measured absorbance to calculate a test substance concentration (IC50) that inhibits PIM1 serine/threonine kinase activity by 50%.

[2] = target: PIM1 transgenic cells (Ba/F3) (Homo sapiens, UniProt P11309); assay: Proliferation inhibitory effect on PIM1 transgenic cells; assay type: cell-based, mouse; conditions: proliferation inhibition, 72 hours, Cell Counting Kit-8, read-out: PIM1 IC50
Chain of PIM1 transgenic cells (Ba/F3) (P11309 whole entry, stated change not applied): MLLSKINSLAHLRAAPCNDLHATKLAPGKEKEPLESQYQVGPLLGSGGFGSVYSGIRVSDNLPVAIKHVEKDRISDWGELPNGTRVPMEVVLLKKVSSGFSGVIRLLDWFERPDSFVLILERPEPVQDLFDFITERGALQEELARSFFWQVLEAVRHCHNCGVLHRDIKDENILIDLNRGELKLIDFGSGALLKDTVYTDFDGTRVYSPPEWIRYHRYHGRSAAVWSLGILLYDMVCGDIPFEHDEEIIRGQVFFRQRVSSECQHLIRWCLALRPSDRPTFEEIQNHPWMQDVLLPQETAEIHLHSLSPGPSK
Excerpt: Human PIM1, 2, and 3 genes were inserted into the multi-cloning sites of retrovirus expression vectors pMYs-IRES-GFP, respectively, to prepare gene transfer vectors. Then, each gene transfer vector was introduced into packaging cells PLAT-E derived from a human fetal kidney cell line in the logarithmic growth phase, using a transfection reagent (FuGENE6, Promega Corporation). Since the culture supernatant of PLAT-E after gene transfer contained virus particles for gene transfer, the culture supernatant was collected and used as a medium for gene transfer. The medium for gene transfer was added to a plate coated with RetroNectin, and the plate was incubated to attach the virus particles to the plate. Then, a mouse pro-B cell line Ba/F3 in the logarithmic growth phase was seeded on the plate and infected with the virus to prepare PIM1, 2, or 3 transgenic cells that proliferate in a PIM 1, 2, or 3-dependent manner. The expression of PIM1, 2, or 3 protein in each cell was confirmed by Western blotting.
Each test substance was prepared to 10 mM with dimethylsulfoxide (DMSO), and diluted with DMSO so as to have concentrations of 3000, 1000, 300, 100, 30, 10, 3, and 1 μM. Moreover, each dilution was further diluted 10-fold with distilled water to prepare a test substance solution.
PIM1, 2, 3-expressing cells were seeded on a 96-well plate, and each test substance solution prepared the next day was added such that final concentrations were 10000, 3000, 1000, 300, 100, 30, 10, 3, and 1 nM. 72 hours after the addition, 10 μL of Cell Counting Kit-8 (DOJINDO LABORATORIES) was added to each well. After incubation for 1 to 4 hours, absorbance OD450 at 450 nm was measured. In addition, absorption OD650 at 650 nm as a reference wavelength was measured.
OD450-OD650 for each condition was calculated, and then the inhibition rates when OD450-OD650 of negative control (DMSO only) and OD450-OD650 of Blank (without cells) were set to 0% and 100%, respectively, were calculated. Then, non-linear regression analysis was performed for logarithmic dose and inhibition rate using a two-parameter logistic model to estimate IC50 values.

T1 sequence (P11309 whole entry): as the sequence (P11309 whole entry, stated change not applied) above

Structure (SMILES)	IC50 [1] [nM]	GI50 [2] [nM]
C[C@H](Nc1cc(-c2n[nH]c(=O)o2)ccc1C(F)(F)F)C1CCCNCC1 (stereo partly drawn) [Example 157, 5-[3-{[(1S)-1-(azepan-4-yl)ethyl]amino}-4-(trifluoromethyl)phenyl]-1,3,4-oxadiazol-2(3H)-one hydrochloride]	3.3	65
CCc1c(F)cc(-c2n[nH]c(=O)o2)cc1N[C@@H](C)[C@H]1CC[C@H](N)CC1 [Example 231, 5-[3-({(1S)-1-[(1r,4S)-4-aminocyclohexyl]ethyl}amino)-4-ethyl-5-fluorophenyl]-1,3,4-oxadiazol-2(3H)-one hydrochloride]	3.4	37
C[C@H](Nc1cc(-c2n[nH]c(=O)o2)ccc1C(F)(F)F)C1CCCNCCC1 [Example 162, 5-[3-{[(1S)-1-(azocan-5-yl)ethyl]amino}-4-(trifluoromethyl)phenyl]-1,3,4-oxadiazol-2(3H)-one hydrochloride]	8.7	140
O=c1[nH]nc(-c2cc(F)c(C(F)(F)F)c(NCC3(F)CCNCC3)c2)o1 [Example 129, 5-[3-fluoro-5-{[(4-fluoropiperidin-4-yl)methyl]amino}-4-(trifluoromethyl)phenyl]-1,3,4-oxadiazol-2(3H)-one hydrochloride]	8.2	360
C[C@H](Nc1cc(-c2n[nH]c(=O)o2)ccc1C(F)(F)F)[C@H]1[C@@H]2CC[C@H]1CNC2 [Example 156, 5-[3-({(1S)-1-[(1R,5S,8s)-3-azabicyclo[3.2.1]octan-8-yl]ethyl}amino)-4-(trifluoromethyl)phenyl]-1,3,4-oxadiazol-2(3H)-one hydrochloride]	14	160
O=c1[nH]nc(-c2ccc(C(F)(F)F)c(N[C@@H](CF)C3CCNCC3)c2)o1 [Example 152, 5-[3-{[(1R)-2-fluoro-1-(piperidin-4-yl)ethyl]amino}-4-(trifluoromethyl)phenyl]-1,3,4-oxadiazol-2(3H)-one hydrochloride]	3.3	57

More lines, now with the values ahead:

IC50 [1] [nM]	GI50 [2] [nM]	Structure (SMILES)
140	1900	C[C@H](Nc1cc(-c2n[nH]c(=O)o2)ccc1C(F)(F)F)[C@H]1CC[C@H](NCC(F)(F)F)CC1 [Example 197, 5-[3-{[(1S)-1-{(1r,4S)-4-[(2,2,2-trifluoroethyl)amino]cyclohexyl}ethyl]amino}-4-(trifluoromethyl)phenyl]-1,3,4-oxadiazol-2(3H)-one hydrochloride]
70	3300	O=c1[nH]nc(-c2ccc(Cl)c(NC3CCNCC3)c2)o1 [Example 31, 5-{4-chloro-3-[(piperidin-4-yl)amino]phenyl}-1,3,4-oxadiazol-2(3H)-one hydrochloride]
1.5	210	C[C@H](Nc1cc(-c2n[nH]c(=O)o2)cc([N+](=O)[O-])c1Cl)C1CCNCC1 [Example 91, 5-(4-chloro-3-nitro-5-{[(1S)-1-(piperidin-4-yl)ethyl]amino}phenyl)-1,3,4-oxadiazol-2(3H)-one hydrochloride]
6.6	630	NCCC1CCN(c2cc(-c3n[nH]c(=O)o3)ccc2C(F)(F)F)CC1 [Example 10, 5-{3-[4-(2-aminoethyl)piperidin-1-yl]-4-(trifluoromethyl)phenyl}-1,3,4-oxadiazol-2(3H)-one hydrochloride]
2.5	87	N[C@H]1CC[C@H](COc2cc(-c3n[nH]c(=O)o3)ccc2Br)CC1 [Example 238, 5-(3-{[(1r,4r)-4-aminocyclohexyl]methoxy}-4-bromophenyl)-1,3,4-oxadiazol-2(3H)-one]
–	87	C[C@H](Nc1cc(-c2n[nH]c(=O)o2)ccc1C(F)(F)F)C12CC(N)(C1)C2 [Example 185, 5-[3-{[(1S)-1-(3-aminobicyclo[1.1.1]pentan-1-yl)ethyl]amino}-4-(trifluoromethyl)phenyl]-1,3,4-oxadiazol-2(3H)-one]
